Experiment: High fat diet induced obesity (DIO) mouse model
Type: in vivo, C57CL/6J mice
Parameters: Epididymal Fat weight / Retroperitoneal Fat weight / Total Fat (sum of the three fat deposits) / Retroperitoneal Fat / Total Fat / Epididymal Fat, absolute weight / Retroperitoneal Fat, absolute weight: unit not given here
Conditions: DIO mice; for FER (Food efficiency ratio): FER = body weight gain/food intake; for Hepatocellular ballooning (0-2) / Lobular Inflammation (0-3) / NSAH (sum) / Steatosis (0-3): liver pathology score; for Total Fat: sum of the three fat pads
Description: C57CL/6J mice aged 4-6 weeks (Korea Research Institute of Bioscience & Biotechnology, Ohchang, Korea) were housed in Polycarbonate cages (five mice per cage) in a room with a 12 hr:12 hr light-dark cycle and an ambient temperature of 24° C. All the mice were fed a commercial chow diet for 1 week after arrival in the animal facility. Mice were then divided into normal and obesity groups and fed with normal diet (ND) and high fat diets (HFD) respectively. The HFD group was divided into multiple treatment groups: a high fat diet vehicle group (HFD), an orlistat (purchased as OTC drug Alli®) positive control treatment group (ORI, 40 mg/kg of animal weight, 2 times/day) and optionally a sibutramine positive control treatment group (10 mg/kg, 1 time/day). The HFD contained 340 g of fat/kg of HFD (310 g lard plus 30 g soybean oil; Harlan Laboratories, USA). The HFD was formulated to provide 60% of the total energy generated by the diet from fat by replacing carbohydrate energy with lard and soybean oil, whereas the normal diet (ND) group was fed a diet providing only 18% of the total diet energy from fat(Harlan Laboratories, USA).
Body weight was measured once each week and feed intake was measured twice per week. At the end of the experimental period, following a 12 hr. fasting period, the animals were anesthetized with ether, and blood was drawn from the abdominal vein. Liver and kidney and adipose tissues (epididymal, retroperitoneal, perirenal adipose tissues) were removed from each animal, rinsed with physiological saline, and weighed. Serum concentrations of glucose, total cholesterol, triglycerides, and LDL-cholesterol were determined using automatic analyzer (INTEGRA 400, Roche, Germany). Statistical significance of test results was measured using the Student's t-test.

[1] = SIB 10 mg/kg, ORI 40 mg/kg, Mutamba extract 32 (G1) 1000 mg/kg, mean
[2] = SIB 10 mg/kg, ORI 40 mg/kg, Mutamba extract 33-2 G1 1000 mg/kg, mean
[3] = combination (1:1) 2000 mg/kg twice a day, group mean
[4] = combination (5:1) 1200 mg/kg twice a day by gavage, group mean
[5] = combination (5:1) 1200 mg/kg twice a day, biochemistry parameters, Table 85, first print
[6] = combination (5:1) 1200 mg/kg twice a day, biochemistry parameters, Table 85, second print
[7] = combination (10:1) 1100 mg/kg twice a day, biochemistry parameter
[8] = combination (10:1) 1100 mg/kg twice a day, group mean
[9] = plasma, Mean, G1 1,300 mg/kg twice a day

CCCCCCCCCCC[C@@H](C[C@@H]1OC(=O)[C@H]1CCCCCC)OC(=O)[C@H](CC(C)C)NC=O [ORI, orlistat]
Glu (ORI group, mean, Table 137): 194.00 mg/dL
HDL-C (ORI group, mean, Table 137): 62.42 mg/dL
LDL-C (ORI group, mean, Table 137): 4.03 mg/dL
T-chol (ORI group, mean, Table 137): 137.33 mg/dL
TG (ORI group, mean, Table 137): 27.83 mg/dL
Epididymal Fat, absolute weight (ORI group, mean, Table 138): 2.08
Liver, absolute organ weight (ORI group, mean, Table 138): 0.99 g
Perirenal Fat, absolute weight (ORI group, mean, Table 138): 0.28
Retroperitoneal Fat, absolute weight (ORI group, mean, Table 138): 0.57
Total Fat (sum of the three fat pads) (ORI group, mean, Table 138): 2.94
Average Body Weight Gain [1]: 0.038 g/day
Average Food Intake [1]: 2.826 g/day
Body Weight Gain [2]: 0.093 g/day
Food Intake [2]: 2.769 g/day
FER (Food efficiency ratio) (combination (1:1) 2000 mg/kg twice a day): 0.000
Food Intake [3]: 3.961 g/day
Weight Gain [3]: -0.002 g/day
FER (Food efficiency ratio) (combination (5:1) 1200 mg/kg twice a day by gavage): 0.000
Food Intake [4]: 3.961 g/day
Weight Gain [4]: -0.002 g/day
Glu [5]: 225.50 mg/dL
LDL-C [5]: 3.30 mg/dL
T-chol [5]: 134.00 mg/dL
TG [5]: 62.50 mg/dL
Glu [6]: 225.50 mg/dL
LDL-C [6]: 3.30 mg/dL
T-chol [6]: 134.00 mg/dL
TG [6]: 62.50 mg/dL
FER (Food efficiency ratio) (combination (10:1) 1100 mg/kg twice a day): 0.000
Glu [7]: 225.50 mg/dL
T-chol [7]: 134.00 mg/dL
TG [7]: 62.50 mg/dL
Food Intake [8]: 3.961 g/day
Weight Gain [8]: -0.002 g/day
Hepatocellular ballooning (0-2) (ORI group, mean, Table 139): 0.67
Lobular Inflammation (0-3) (ORI group, mean, Table 139): 1.33
NSAH (sum) (ORI group, mean, Table 139): 2.67
Steatosis (0-3) (ORI group, mean, Table 139): 0.67
Hepatocellular ballooning (0-2) (mean, Table 133): 0.33
Lobular Inflammation (0-3) (mean, Table 133): 1.50
NSAH (sum) (mean, Table 133): 2.17
Steatosis (0-3) (mean, Table 133): 0.33
Glu [9]: 269.17 mg/dL
T-chol [9]: 156 mg/dL
TG [9]: 88.3 mg/dL
Absolute Organ Weight, Total Fat (sum of the three fat pads (epididymal, retroperitoneal, perirenal), in g (unit assumed)): 2.952
Total Fat (G1 = 800 mg/kg orally twice a day): 2.82
Total Fat (G1 = 1,100 mg/kg orally twice a day): 2.82
Total Fat (G1 = 1,200 mg/kg orally twice a day): 2.82
Total Weight (week 0, G1 = 800 mg/kg orally twice a day, in g (unit assumed)): 40.22
Total Weight (week 0, G1 = 1,100 mg/kg orally twice a day, in g (unit assumed)): 40.22
Total Body Weight (week 0, G1 = 1,200 mg/kg orally twice a day, in g (unit assumed)): 40.22
Total Weight (week 0, ORI group, mean, Table 134, in g (unit assumed)): 38.61
Total Body Weight (week 0, ORI group, mean, Table 145, in g (unit assumed)): 40.22
Weight Gain (week 1, G1 = 800 mg/kg orally twice a day): −2.24
Total Weight (week 1, G1 = 800 mg/kg orally twice a day, in g (unit assumed)): 37.98
Weight Gain (week 1, G1 = 1,100 mg/kg orally twice a day): −2.24
Total Weight (week 1, G1 = 1,100 mg/kg orally twice a day, in g (unit assumed)): 37.98
Weight Gain (week 1, G1 = 1,200 mg/kg orally twice a day): −2.24
Total Body Weight (week 1, G1 = 1,200 mg/kg orally twice a day, in g (unit assumed)): 37.98
Total Weight (week 1, ORI group, mean, Table 134, in g (unit assumed)): 33.17
Weight Gain (week 1, ORI group, mean, Table 135): −5.43
Total Body Weight (week 1, ORI group, mean, Table 145, in g (unit assumed)): 37.98
Weight Gain (week 1, ORI group, mean, Table 146): −2.24
Weight Gain (week 2, G1 = 800 mg/kg orally twice a day): −6.14

Source: US20240024403A1, “Compositions and Methods for Managing Weight” (Unigen, Inc., priority 2012, published 2024)
